Experimental findings from ChEMBL document CHEMBL4000149, “The effect of glycine replacement with flexible ω-amino acids on the antimicrobial and haemolytic activity of an amphipathic cyclic heptapeptide” (Eur J Med Chem, 2015) are described below.

Values after ≈ are worked out from the molar mass of the structure shown. Numbered stars: 1 amine (or outer) side, 2 acyl side, 3 side chain; on linkers, the order of the positions; unused ones are H or OH. Bridge positions count the residues as written; N and C are the ends. Square brackets hold non-standard residues; d marks the D form. Peptide text beside a SMILES is read from it. ξ: configuration not given here. 2Nal = N[C@@H](Cc1ccc2ccccc2c1)C(=O)O; X1 = NC(CCN[*:2])C(=O)[*:1]; ξAoc(2) = CCCCCCC(N)C(=O)O; Aoc = NCCCCCCCC(=O)O; ξDab = NCCC(N)C(=O)O; Ahx = NCCCCCC(=O)O

One data set relates to Staphylococcus aureus. The data set can be described thus: Antimicrobial activity against methicillin-resistant Staphylococcus aureus ATCC 33591 by tube dilution method. It counts as functional.
The next data set has as its system Escherichia coli. The data set can be described thus: Antimicrobial activity against Escherichia coli ATCC 25922 by tube dilution method. It counts as functional.
In a further data set the test system is Enterococcus faecium. The data set can be described thus: Antimicrobial activity against vancomycin-resistant Enterococcus faecium ATCC 700221 by tube dilution method. In kind it is functional.
The subject of the next data set is Klebsiella pneumoniae. The data set can be described thus: Antimicrobial activity against multidrug-resistant Klebsiella pneumoniae ATCC 700603 by tube dilution method. In kind it is functional.
A further data set concerns Pseudomonas aeruginosa. The data set can be described thus: Antimicrobial activity against Pseudomonas aeruginosa ATCC 27853 by tube dilution method. It counts as functional.
For another data set, the system named is Candida albicans. The data set can be described thus: Antifungal activity against Candida albicans ATCC 200955 by tube dilution method. It counts as functional.
The subject of another data set is Acinetobacter baumannii. The data set can be described thus: Antimicrobial activity against multidrug-resistant Acinetobacter baumannii ATCC BAA-1605 by tube dilution method. In kind it is functional.
Data set [1] can be described thus: Toxicity in human erythrocytes assessed as hemolysis after 1 hr. In kind it is cell-based, Erythrocyte.
Data set [2] can be described thus: Toxicity in human erythrocytes assessed as hemolysis at 150 uM after 1 hr. In kind it is cell-based, Erythrocyte. The settings on record: read-out: Activity.

On to `CC(C)C[C@@H]1NC(=O)[C@H](Cc2ccc3ccccc3c2)NC(=O)[C@H](CCCNC(=N)N)NC(=O)[C@@H]2CCCN2C(=O)CNC(=O)[C@H](Cc2ccc3ccccc3c2)NC(=O)[C@H](CCCNC(=N)N)NC1=O` (cyclo([2Nal]GPR[2Nal]LR)), for which the MIC was 64 µM (≈ 62.3 µg/mL) with Staphylococcus aureus; greater than 128 µM against Escherichia coli; 16 µM (≈ 15.6 µg/mL) in the data set with Enterococcus faecium; greater than 128 µM against Klebsiella pneumoniae; 128 µM (≈ 125 µg/mL) against Pseudomonas aeruginosa; 64 µM (≈ 62.3 µg/mL) with Candida albicans. For the same compound, the MIC with Acinetobacter baumannii is greater than 128 µM. Also, in data set [1], the concentration giving a half-maximal response (EC50) at 1 hr is greater than 150 µM. Also, the hemolysis at 1 h, 150 µM in [2] was less than 8%.
Consider `CC[C@H](C)[C@@H]1NC(=O)[C@H](Cc2ccc3ccccc3c2)NC(=O)[C@H](CCCNC(=N)N)NC(=O)[C@H]([C@@H](C)O)NC(=O)CCCCCCCNC(=O)[C@H](Cc2ccc3ccccc3c2)NC(=O)[C@H](CCCNC(=N)N)NC1=O` (cyclo([2Nal][Aoc]TR[2Nal]IR)), for which the MIC is 32 µM (≈ 34 µg/mL) against Staphylococcus aureus; 128 µM (≈ 136 µg/mL) against Escherichia coli; 16 µM (≈ 17 µg/mL) in the data set with Enterococcus faecium; greater than 128 µM in the data set on Klebsiella pneumoniae; greater than 128 µM in the data set with Pseudomonas aeruginosa; 64 µM (≈ 68 µg/mL) against Candida albicans. Besides, the MIC against Acinetobacter baumannii stood at 128 µM (≈ 136 µg/mL). Moreover, in data set [1], the concentration giving a half-maximal response (EC50) at 1 hr is greater than 150 µM. The hemolysis at 1 h, 150 µM in data set [2] came to 10%.
On to `CCCCCCC1NC(=O)[C@H](Cc2ccc3ccccc3c2)NC(=O)[C@H](CCCNC(=N)N)NC(=O)[C@H](CC(C)C)NC(=O)C(N)CCNC(=O)C(N)CCNC(=O)[C@H](Cc2ccc3ccccc3c2)NC(=O)[C@H](CCCNC(=N)N)NC1=O` (some centres undefined) (H-[ξDab]LR[2Nal][ξAoc(2)]R[2Nal]; linker 1-C via X1), for which the minimum inhibitory concentration (MIC) in the data set with Staphylococcus aureus came out at 4 µM (≈ 4.65 µg/mL); against Escherichia coli it was 16 µM (≈ 18.6 µg/mL); against Enterococcus faecium, 4 µM (≈ 4.65 µg/mL); in the data set with Klebsiella pneumoniae, 64 µM (≈ 74.3 µg/mL); with Pseudomonas aeruginosa, 32 µM (≈ 37.2 µg/mL); in the data set with Candida albicans, 8 µM (≈ 9.29 µg/mL). In addition, the minimal inhibitory concentration (MIC) with Acinetobacter baumannii was 64 µM (≈ 74.3 µg/mL). The EC50 at 1 hr in data set [1] was 55 µM. The hemolysis at 1 h, 150 µM in data set [2] amounted to 100%.
Take `CC(C)C[C@@H]1NC(=O)[C@H](Cc2ccc3ccccc3c2)NC(=O)[C@H](CCCNC(=N)N)NC(=O)[C@H](CC(C)C)NC(=O)[C@@H](N)CCCCNC(=O)[C@H](Cc2ccc3ccccc3c2)NC(=O)[C@H](CCCNC(=N)N)NC1=O` (H-KLR[2Nal]LR[2Nal]; lactam 1-C): the MIC in the data set with Staphylococcus aureus is 8 µM (≈ 8.49 µg/mL); in the data set with Escherichia coli it was 32 µM (≈ 34 µg/mL); in the data set on Enterococcus faecium it was 4 µM (≈ 4.25 µg/mL); with Klebsiella pneumoniae, 32 µM (≈ 34 µg/mL); against Pseudomonas aeruginosa it was 32 µM (≈ 34 µg/mL); against Candida albicans it was 8 µM (≈ 8.49 µg/mL). In the data set on Acinetobacter baumannii, this compound displayed a minimal inhibitory concentration (MIC) of 32 µM (≈ 34 µg/mL). Further, the EC50 at 1 hr in data set [1] is 150 µM. In addition, the hemolysis at 1 h, 150 µM in [2] turned out to be 51%.
For `CC(C)C[C@@H]1NC(=O)[C@H](Cc2ccc3ccccc3c2)NC(=O)[C@H](CCCNC(=N)N)NC(=O)[C@H]([C@@H](C)O)NC(=O)CNC(=O)[C@H](Cc2ccc3ccccc3c2)NC(=O)[C@H](CCCNC(=N)N)NC1=O` (cyclo([2Nal]GTR[2Nal]LR)), the MIC against Staphylococcus aureus is 32 µM (≈ 31.3 µg/mL); against Escherichia coli, greater than 128 µM; in the data set with Enterococcus faecium, 64 µM (≈ 62.6 µg/mL); in the data set on Klebsiella pneumoniae, greater than 128 µM; in the data set with Pseudomonas aeruginosa, greater than 128 µM; in the data set on Candida albicans, 128 µM (≈ 125 µg/mL). This compound showed an MIC in the data set with Acinetobacter baumannii greater than 128 µM. Besides, the EC50 at 1 hr in data set [1] is greater than 150 µM. Moreover, the hemolysis at 1 h, 150 µM in [2] is less than 8%.
With `CC(C)C[C@@H]1NC(=O)CCCCCNC(=O)[C@H](Cc2ccc3ccccc3c2)NC(=O)[C@H](CCCNC(=N)N)NC(=O)[C@H](CC(C)C)NC(=O)[C@H](Cc2ccc3ccccc3c2)NC(=O)[C@H](CCCNC(=N)N)NC1=O` (cyclo([2Nal][Ahx]LR[2Nal]LR)), the MIC in the data set on Staphylococcus aureus came out at 8 µM (≈ 8.37 µg/mL); in the data set on Escherichia coli, 32 µM (≈ 33.5 µg/mL); against Enterococcus faecium, 4 µM (≈ 4.19 µg/mL); in the data set on Klebsiella pneumoniae, 128 µM (≈ 134 µg/mL); with Pseudomonas aeruginosa, 64 µM (≈ 67 µg/mL); against Candida albicans it was 16 µM (≈ 16.7 µg/mL). For the same compound, the lowest concentration to inhibit growth in the data set with Acinetobacter baumannii (MIC) was 64 µM (≈ 67 µg/mL). Also, in [1], the EC50 at 1 hr was 115 µM. Also, the hemolysis at 1 h, 150 µM in [2] turned out to be 75%.
